Broadly, the mortality is the percentage killed. A low value points to a weak lethal effect.

The values that follow come from patent US20100010058A1, “Azoline Compounds for Combating Arthropod Pests” (BASF SE, priority 2006, published 2010).

Where only a bound is given, the exact number is not on record here.

Common to all, as to type: in vivo
Assay [1] deals with Vetch Aphid (Megoura viciae). The experiment in a line: Activity against Vetch Aphid (Megoura viciae), bean leaf disk microtiterplate test. Particulars: foliar, 144 h, bean leaf disks sprayed, adult aphids, 6 days, compared to 0% mortality of untreated controls. The protocol: 2.1 Activity against Vetch Aphid (Megoura viciae)
The active compounds were formulated in DMSO/water (1:3). Bean leaf disks were placed into microtiterplates filled with 0.8% agar-agar and 2.5 ppm OPUS™. The leaf disks were sprayed with 2.5 μl of the test solution and 5 to 8 adult aphids were placed into the microtiterplates which were then closed and kept at 22-24° C. and 35-45% under fluorescent light for 6 days. Mortality was assessed on the basis of vital, reproduced aphids. Tests were replicated 2 times.

The test system of assay [2] is Brown Planthopper (nilaparvata lugens). Briefly: Activity against Brown Planthopper (nilaparvata lugens), sprayed rice plants. To be noted: assessed 24, 48 and 72 hours after treatment, in comparison with untreated controls. On the procedure: 2.4 Activity against Brown Planthopper (nilaparvata lugens)
The active compounds were formulated as a 20:80 acetone:water solution. Surfactant (Alkamuls EL 620) was added at the rate of 0.1% (vol/vol).
Potted rice plants of 3-4 weeks of age are sprayed with 10 ml of the test solution using air driven hand atomizer (Devillbis atomizer) at 1.7 bar. The treated plants are allowed to dry for about 1 hour and covered with Mylar cages. The plants are inoculated with 10 adults of the specie (5 male and 5 females) and kept at 25-27° C. and 50-60% humidity for 3 days. Mortality is assed after 24, 48 and 72 hours after treatment. Dead insects are usually found in the water surface. Each treatment is replicated once.

Assay [3] deals with Green Peach Aphid (Myzus persicae). Briefly: Activity against Green Peach Aphid (Myzus persicae), pepper plant leaf dip test. To be noted: foliar, 120 h, pepper plant leaves dipped, after 5 days, in comparison with untreated controls. The protocol: 2.3. Activity against Green Peach Aphid (Myzus persicae)
Pepper plants in the 2nd leaf-pair stage (variety ‘California Wonder’) are infested with approximately 40 laboratory-reared aphids by placing infested leaf sections on top of the test plants. The leaf sections are removed after 24 hours. The leaves of the intact plants are dipped into gradient solutions of the test compound. Aphid mortality on the treated plants, relative to mortality on check plants, is determined after 5 days.

The subject of assay [4] is Cotton Aphid (Aphis gossypii). Briefly: Activity against Cotton Aphid (Aphis gossypii), cotton cotyledon dip test. Particulars: 120 h, cotton cotyledons dipped, mortality counts after 5 days. From the text: 2.2 Activity against Cotton Aphid (Aphis gossypii)
The active compounds were formulated in acetone/water (1:1) and 100 ppm Kinetic™ surfactant. Cotton plants at the cotyledon stage (one plant per pot) were infested by placing a heavily infested leaf from the main colony on top of each cotyledon. The aphids were allowed to transfer to the host plant overnight, and the leaf used to transfer the aphids was removed. The cotyledons were dipped in the test solution and allowed to dry. After 5 days, mortality counts were made.

`CC(C)=CCN(NC1=NCCS1)c1cccc(C)c1C` [Example 30, N′-(4,5-Dihydro-thiazol-2-yl)-N-(2,3-dimethyl-phenyl)-N-(3-methyl-but-2-enyl)-hydrazine]: in assay [1], the mortality at 2500 ppm is greater than 75%.
As for `Cc1cccc(CN(NC2=NCCS2)c2cccc(Cl)c2Cl)c1` [Example 7, N-(2,3-Dichloro-phenyl)-N′-(4,5-dihydro-thiazol-2-yl)-N-(3-methyl-benzyl)-hydrazine], the mortality at 300 ppm is no less than 50% in assay [2], greater than 50% in assay [3] and greater than 50% in assay [4]. For the same compound, the mortality at 2500 ppm in assay [1] is greater than 75%.
